In brackets after ≈: the same amount, converted by molar mass.
Columns and labels:
[1] = tested on: murine splenocytes from BALB/c mice (lymphoid cells); experiment: Lymphocyte viability assay (LCV), MTT; type: cell-based; details: percent of positive control (no drug)
Protocol: 1. Extra and compounds were similarly tested in parallel with the MLR to determine their toxic effects on lymphoid cells using the lymphocyte viability assay (LCV).
(§1) 3. Murine splenocyte suspensions were prepared from BALB/c mice. Spleens were aseptically removed and homogenized in RPMI-1640 tissue culture medium (TCM), supplemented with 10% fetal calf serum, 2% 1-glutamine, 15 mM HEPES, 1% antibiotic-antimycotic solution, and 25 μg/ml gentamicin (GIBCO). The cell concentrations were adjusted to 2.5 ×10^6 cells/ml.
4. A volume of 0.2 ml of the splenocyte suspension was added to replicate test wells. Positive control wells received splenocyte suspensions in the absence of the test extracts/compounds.
5. Plates were incubated at 37° C. for 86 hours. At the end of the incubation period, a volume of 75 μl of a 2.0 mg/ml solution of MTT was added to each well, and the plates were returned to the incubator for an additional 5 hours.
6. The supernatants from each microwell were then removed, and a volume of 200 μl of isopropanol was added and the contents mixed.
7. Values were obtained by comparing the optical densities (determined at 570 and 650 nm) of wells containing the test compounds with those of wells containing cells and medium only (positive control). The results are expressed as a percentage of the positive control.
8. Replicate counts were averaged, and the data reported as a percentage of the positive control. An LCV value of less than 60% of the positive control is an indication of cytotoxicity of the test extracts/compounds for lymphoid cells.

[2] = tested on: murine P388 leukemia cells; experiment: Toxicity against murine P388 leukemia cells (MTT, 48 hour exposure); type: cell-based
Protocol: P388 cells obtained from J. Mayo, National Cancer Institute, Bethesda, Md., were maintained in Roswell Park Memorial Institute medium 1640 (RPMI-1640) supplemented with 10% horse serum. All cell lines were cultured in plastic tissue culture flasks and kept in an incubator at 37° C. in humidified air containing 5% CO2. Antibiotic-free stock cultures of P388 cells were subcultured to 10^5 cells/ml by dilution in fresh growth medium at 2-3 day intervals. The means generation time of primary cultures was 14-17 hours.
Solvent for all dilutions was methanol, which was removed from plates under vacuum. All experimental cultures were initiated in medium containing Gentamicin sulfate ([…]; Schering Corporation, Kenilworth, N.J.). […]
To quantitate the effects on cell proliferation, 75 μl of warm growth medium containing 5 mg/ml MTT was added to each well and cultures were returned to the incubator for 90 minutes. To spectophotometrically quantitate formation of reduced formazan, plates were centrifuged (900 xg, 5 minutes), culture fluids removed by aspiration, and 200 μl of acidified isopropanol (2 ml concentrated HCl/liter isopropanol) added per well. The absorbance of the resulting solutions were measured at 570 nm with a plate reader (MR700 Microplate Reader, Dynatech Laboratories, Chantilly, Va.). […]

CV-1 cells = experiment: Drug cytotoxicity in the antiviral assay; type: cell-based, African green monkey; details: anti-HSV-1 assay; ID50 not defined in the text, TI = ID50/ED50
From the text: (§2) The antiviral assay for herpes simplex virus type 1 (HSV-1) is a plaque inhibition assay. CV-1 cells (a fibroblast-like cell culture derived from primary African green monkey cells) are infected with the Kos strain of HSV-1 . Cytopathic effects (CPE) of the virus are prevented from rapid spread by a methylcellulose medium. Distinct areas of infected cells or plaques are distinguished from a surrounding area of viable CV-1 cells by staining the culture with neutral red which is a stain taken up by living cells. The viral dose can be quantitated by counting the number of plaques. Compounds with antiviral activity can be identified by comparing the plaque number in the drug treated cells to the HSV-1 viral control.
Confluent cultures of CV-1 cells are rinsed with PBS two times and 4.0 ml trypsin solution is added to 150 cm^2 tissue sulture flask. Cells are dispersed an 10×10^6 CV-1 cells in 40 ml of growth medium are added to new 150 cm^2 flasks. The number of cells added to a cell culture flask is proportional to the area. The cell culture is confluent in 5 to 7 days for use in the antiviral assay. […]
(§3) Discs are placed in wells containing cells, virus, and overlay medium. Plates are incubated at 37° C. for 48 hours, the second overlay medium is added at […] per well, and, after 24 hours additional incubation time, the plates are read. […]

[3] = tested on: herpes simplex virus type 1 (HSV-1), Kos strain; experiment: HSV-1 plaque inhibition assay in CV-1 cells; type: cell-based; details: anti-HSV-1 activity
From the text: as §2
Twenty-four well plates (16 mm diameter per well) are seeded with 2×10^5 cells per well in 0.5 ml growth medium and incubated at 37°) C. with 5% CO2. The plates are used in 24 to 72 hours. Each well is infected with at least 25 but no more than 80 plaque forming units (PFU) of virus. Plates are incubated for 1.0 hours at 37° C. with 0.2 ml virus. […]
as §3

[4] = tested on: combined murine splenocyte suspensions from BALB/c and C57BL/6J mice; experiment: Mixed lymphocyte reaction (MLR), 3H-thymidine incorporation; type: cell-based; details: percent of positive control (no drug)
Protocol: as §1, with “1.” for “3.”, “prepared separately” for “prepared”, “BALB/c and C57BL/6J” for “BALB/c”, “cells/ml. Aliquots of each cell population were removed to separate tubes, and the remaining two cell suspensions combined to one tube.” for “cells/ml.”
3. A volume of 0.2 ml of the combined splenocyte suspensions was added to triplicate test wells. Positive control wells received combined splenocyte suspensions in the absence of the test extracts/compounds. Negative control wells consisted of separate (not mixed) splenocyte suspensions cultured in the absence of the test compounds.
4. Plates were incubated in 5% CO2 at 37° C. for 86 hours.
5. A volume of 0.05 ml of ^3 H-thymidine (20 μCk/ml) was added to each well, and the plates were incubated in 5% CO2 at 37° C. for an additional 5 hours.
6. The contents of each well of the microtiter plates were harvested onto glass fiber filter strips, and the resulting filter discs placed in scintillation vials to which 2.0 ml of scintillation fluid was added.
7. The amount of incorporated ^3 H-thymidine was determined by counting the vials in a liquid scintillation counter.
8. Triplicate counts were averaged, and the data reported as a percentage of the positive control.

Compound	% LCV Control ([1]; 2.5 ng/ml) [%]	% LCV Control ([1]; 5.0 ng/ml) [%]	% LCV Control ([1]; 10.0 ng/ml) [%]	% LCV Control ([1]; 20.0 ng/ml) [%]	% LCV Control ([1]; 40.0 ng/ml) [%]	% LCV Control ([1]; 80.0 ng/ml) [%]	% LCV Control ([1]; 160.0 ng/ml) [%]	% LCV Control ([1]; 312.5 ng/ml) [%]	% LCV Control ([1]; 625.0 ng/ml) [%]	% LCV Control ([1]; 1250.0 ng/ml) [%]	% LCV Control ([1]; 2500.0 ng/ml) [%]	% LCV Control ([1]; 5000.0 ng/ml) [%]	IC50 [2] [µg/mL]	ID50 (CV-1 cells) [nanograms/ml]	ED50 [3] [nanograms/ml]	% MLR Control ([4]; 2.5 ng/ml) [%]	% MLR Control ([4]; 5.0 ng/ml) [%]	% MLR Control ([4]; 10.0 ng/ml) [%]	% MLR Control ([4]; 20.0 ng/ml) [%]	% MLR Control ([4]; 40.0 ng/ml) [%]	further results
CCCC[C@@H](C)C[C@@H](C)C(=O)N(C)[C@@H](CC(C)C)C(=O)N[C@H](C(=O)N(C)[C@H](C(=O)N1C[C@@H](O)C[C@H]1C(=O)N1C(=O)C=C[C@@H]1C)C(C)C)[C@H](C)OC(C)=O [Microcolin A, microcolin A]	78	71	80	82	60	59	59	48	52	31	18	3	0.0009 (≈ 1.2 nM)	480	2.5	< 1	< 1	< 1	< 1	< 1	% MLR Control ([4]; 80.0 ng/ml): < 1%; % MLR Control ([4]; 160.0 ng/ml): < 1%; % MLR Control ([4]; 312.5 ng/ml): < 1%; % MLR Control ([4]; 625.0 ng/ml): < 1%; % MLR Control ([4]; 1250.0 ng/ml): < 1%; % MLR Control ([4]; 2500.0 ng/ml): < 1%; % MLR Control ([4]; 5000.0 ng/ml): < 1%
microcolin B	78	121	107	105	97	114	99	110	88	75	51	29	0.096	1185	146.0	93	87	80	39	1	% MLR Control ([4]; 80.0 ng/ml): < 1%; % MLR Control ([4]; 160.0 ng/ml): < 1%; % MLR Control ([4]; 312.5 ng/ml): < 1%; % MLR Control ([4]; 625.0 ng/ml): < 1%; % MLR Control ([4]; 1250.0 ng/ml): < 1%; % MLR Control ([4]; 2500.0 ng/ml): < 1%; % MLR Control ([4]; 5000.0 ng/ml): < 1%

From US5091368A, “Biologically active compounds from blue-green algae” (Harbor Branch Oceanographic Institution, Inc., priority 1990, dated 1992)
